In ChEMBL document CHEMBL5696442, “Discovery of type II inhibitors of TGFβ-activated kinase 1 (TAK1) and mitogen-activated protein kinase kinase kinase kinase 2 (MAP4K2)” (J Med Chem, 2015) one finds residual activity, inhibition and percent of control data, which are given here for 3 molecules.

Active and inactive are the calls of the source. The calls are words filed in the database; no cut-off is given here.

The target in assay [1] is Serine/threonine-protein kinase/endoribonuclease IRE1 (Homo sapiens) (UniProt O75460). Description: Inhibition of ERN1 (unknown origin) at 1 uM by Ambit Kinomescan binding assay relative to control; values are per cent of control.
Chain of Serine/threonine-protein kinase/endoribonuclease IRE1 (Homo sapiens) (O75460 19-977 limits assumed): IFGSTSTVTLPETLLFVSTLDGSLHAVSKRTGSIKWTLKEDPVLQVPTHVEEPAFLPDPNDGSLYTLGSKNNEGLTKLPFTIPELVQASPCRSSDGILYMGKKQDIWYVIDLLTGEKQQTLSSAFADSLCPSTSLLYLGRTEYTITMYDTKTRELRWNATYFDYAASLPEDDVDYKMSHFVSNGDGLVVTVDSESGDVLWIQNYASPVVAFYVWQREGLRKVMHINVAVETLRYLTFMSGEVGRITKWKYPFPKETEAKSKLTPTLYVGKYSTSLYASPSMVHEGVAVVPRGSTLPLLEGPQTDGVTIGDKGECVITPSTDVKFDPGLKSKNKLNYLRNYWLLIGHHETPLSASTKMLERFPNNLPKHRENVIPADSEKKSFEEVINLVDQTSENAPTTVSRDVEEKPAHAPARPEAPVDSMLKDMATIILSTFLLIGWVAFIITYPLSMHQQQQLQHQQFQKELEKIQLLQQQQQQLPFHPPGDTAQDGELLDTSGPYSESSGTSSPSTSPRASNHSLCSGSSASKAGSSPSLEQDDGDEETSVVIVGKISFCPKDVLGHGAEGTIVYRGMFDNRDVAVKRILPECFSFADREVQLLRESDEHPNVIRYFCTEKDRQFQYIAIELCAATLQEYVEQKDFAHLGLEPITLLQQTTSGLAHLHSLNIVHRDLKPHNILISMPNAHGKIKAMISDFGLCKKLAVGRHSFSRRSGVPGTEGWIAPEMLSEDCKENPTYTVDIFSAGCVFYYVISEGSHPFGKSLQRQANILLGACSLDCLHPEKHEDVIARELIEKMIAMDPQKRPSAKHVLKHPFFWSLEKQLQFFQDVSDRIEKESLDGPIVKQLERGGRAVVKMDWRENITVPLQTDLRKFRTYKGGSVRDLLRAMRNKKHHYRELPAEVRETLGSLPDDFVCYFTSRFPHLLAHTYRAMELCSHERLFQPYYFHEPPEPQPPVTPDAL
In assay [2] the target is RAC-alpha serine/threonine-protein kinase (Homo sapiens) (UniProt P31749). Description: Inhibition of AKT1 (unknown origin) at 1 uM by Ambit Kinomescan binding assay relative to control.
The target of assay [3] is Serine/threonine-protein kinase PLK3 (Homo sapiens) (UniProt Q9H4B4). Description: Inhibition of PLK3 (unknown origin) at 1 uM by Ambit Kinomescan binding assay relative to control; values are per cent of control.
Chain of Serine/threonine-protein kinase PLK3 (Homo sapiens) (Q9H4B4 whole entry, looked up): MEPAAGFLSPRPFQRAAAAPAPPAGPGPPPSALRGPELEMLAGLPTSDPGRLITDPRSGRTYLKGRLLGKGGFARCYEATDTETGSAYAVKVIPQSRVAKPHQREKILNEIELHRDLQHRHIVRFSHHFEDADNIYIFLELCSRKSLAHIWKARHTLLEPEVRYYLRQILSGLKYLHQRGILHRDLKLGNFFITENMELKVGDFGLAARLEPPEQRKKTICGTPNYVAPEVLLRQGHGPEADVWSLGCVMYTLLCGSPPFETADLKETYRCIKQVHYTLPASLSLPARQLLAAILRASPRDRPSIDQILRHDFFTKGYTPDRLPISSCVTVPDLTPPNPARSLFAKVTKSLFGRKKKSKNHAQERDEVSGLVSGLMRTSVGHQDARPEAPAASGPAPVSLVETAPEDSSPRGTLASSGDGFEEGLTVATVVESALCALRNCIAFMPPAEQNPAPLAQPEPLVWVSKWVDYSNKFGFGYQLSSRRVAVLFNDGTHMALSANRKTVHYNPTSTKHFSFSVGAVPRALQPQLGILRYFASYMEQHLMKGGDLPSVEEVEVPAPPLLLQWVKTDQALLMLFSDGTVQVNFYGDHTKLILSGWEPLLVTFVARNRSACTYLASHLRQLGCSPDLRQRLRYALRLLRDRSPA
In assay [4] the target is Calcium/calmodulin-dependent protein kinase type II subunit delta (Homo sapiens) (UniProt Q13557). In words: Inhibition of CamK2d K1 labeling site harbouring IPTGQEYAAKIINTK in human Huh-7 cells at 10 uM by KiNativ Profiling analysis relative to control. The format is cell-based.
Chain of Calcium/calmodulin-dependent protein kinase type II subunit delta (Homo sapiens) (Q13557 whole entry): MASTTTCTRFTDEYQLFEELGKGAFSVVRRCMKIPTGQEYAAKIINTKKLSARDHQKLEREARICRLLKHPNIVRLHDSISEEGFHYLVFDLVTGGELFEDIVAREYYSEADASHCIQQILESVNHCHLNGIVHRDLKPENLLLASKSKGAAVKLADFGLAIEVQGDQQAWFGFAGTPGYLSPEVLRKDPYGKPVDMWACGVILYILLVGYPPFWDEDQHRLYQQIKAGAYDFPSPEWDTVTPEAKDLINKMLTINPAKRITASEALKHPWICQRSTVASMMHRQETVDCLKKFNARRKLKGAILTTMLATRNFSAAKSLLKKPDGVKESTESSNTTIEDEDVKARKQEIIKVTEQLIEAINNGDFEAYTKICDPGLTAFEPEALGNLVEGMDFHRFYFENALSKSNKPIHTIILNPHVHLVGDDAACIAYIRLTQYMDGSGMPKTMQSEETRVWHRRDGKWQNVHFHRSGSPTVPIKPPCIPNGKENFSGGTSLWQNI
Assay [5] has as its target Tyrosine-protein kinase ABL1 (Homo sapiens, UniProt P00519). Description: Inhibition of ABL1 (unknown origin) at 10 uM by Ambit Kinomescan binding assay relative to control; values are per cent of control.
In assay [6] the target is 5'-AMP-activated protein kinase catalytic subunit alpha-2 (Homo sapiens) (UniProt P54646). In words: Inhibition of AMPK-alpha2 (unknown origin) at 10 uM by Ambit Kinomescan binding assay.
The target of assay [7] is T1, Mitogen-activated protein kinase kinase kinase 2 (Homo sapiens) (UniProt Q9Y2U5).
T1 sequence (whole entry): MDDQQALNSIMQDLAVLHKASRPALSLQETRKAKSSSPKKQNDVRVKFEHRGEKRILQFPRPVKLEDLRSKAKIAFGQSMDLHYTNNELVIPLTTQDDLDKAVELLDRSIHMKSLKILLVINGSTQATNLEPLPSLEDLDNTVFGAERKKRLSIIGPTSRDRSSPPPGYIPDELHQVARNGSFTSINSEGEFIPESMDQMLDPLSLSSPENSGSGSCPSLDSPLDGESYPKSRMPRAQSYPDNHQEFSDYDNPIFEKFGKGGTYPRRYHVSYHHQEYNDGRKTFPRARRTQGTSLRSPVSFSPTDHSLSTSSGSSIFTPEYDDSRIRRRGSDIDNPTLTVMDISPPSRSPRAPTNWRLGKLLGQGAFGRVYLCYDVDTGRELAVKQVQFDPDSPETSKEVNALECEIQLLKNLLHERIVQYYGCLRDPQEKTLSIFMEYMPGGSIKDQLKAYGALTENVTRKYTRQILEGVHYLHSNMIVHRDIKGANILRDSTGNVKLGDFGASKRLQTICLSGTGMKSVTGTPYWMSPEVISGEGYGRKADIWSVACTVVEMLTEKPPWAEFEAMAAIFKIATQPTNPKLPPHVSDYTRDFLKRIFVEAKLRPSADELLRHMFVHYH
In words: Inhibition of MAP3K2 Lys2 labeling site in human A-375 cells at 0.5 uM by KiNativ Profiling analysis relative to control. The format is cell-based.

Assay [8] has as its target Vascular endothelial growth factor receptor 2 (Homo sapiens) (UniProt P35968). Description: Inhibition of VEGFR2 (unknown origin) at 10 uM by Ambit Kinomescan binding assay relative to control; values are per cent of control.
Assay [9] deals with Tyrosine-protein kinase JAK1 (Homo sapiens) (UniProt P23458). In words: Inhibition of JAK1 JH2 pseudokinase domain (unknown origin) at 10 uM by Ambit Kinomescan binding assay.
Chain of Tyrosine-protein kinase JAK1 (Homo sapiens) (P23458 whole entry, the tested form may be a part): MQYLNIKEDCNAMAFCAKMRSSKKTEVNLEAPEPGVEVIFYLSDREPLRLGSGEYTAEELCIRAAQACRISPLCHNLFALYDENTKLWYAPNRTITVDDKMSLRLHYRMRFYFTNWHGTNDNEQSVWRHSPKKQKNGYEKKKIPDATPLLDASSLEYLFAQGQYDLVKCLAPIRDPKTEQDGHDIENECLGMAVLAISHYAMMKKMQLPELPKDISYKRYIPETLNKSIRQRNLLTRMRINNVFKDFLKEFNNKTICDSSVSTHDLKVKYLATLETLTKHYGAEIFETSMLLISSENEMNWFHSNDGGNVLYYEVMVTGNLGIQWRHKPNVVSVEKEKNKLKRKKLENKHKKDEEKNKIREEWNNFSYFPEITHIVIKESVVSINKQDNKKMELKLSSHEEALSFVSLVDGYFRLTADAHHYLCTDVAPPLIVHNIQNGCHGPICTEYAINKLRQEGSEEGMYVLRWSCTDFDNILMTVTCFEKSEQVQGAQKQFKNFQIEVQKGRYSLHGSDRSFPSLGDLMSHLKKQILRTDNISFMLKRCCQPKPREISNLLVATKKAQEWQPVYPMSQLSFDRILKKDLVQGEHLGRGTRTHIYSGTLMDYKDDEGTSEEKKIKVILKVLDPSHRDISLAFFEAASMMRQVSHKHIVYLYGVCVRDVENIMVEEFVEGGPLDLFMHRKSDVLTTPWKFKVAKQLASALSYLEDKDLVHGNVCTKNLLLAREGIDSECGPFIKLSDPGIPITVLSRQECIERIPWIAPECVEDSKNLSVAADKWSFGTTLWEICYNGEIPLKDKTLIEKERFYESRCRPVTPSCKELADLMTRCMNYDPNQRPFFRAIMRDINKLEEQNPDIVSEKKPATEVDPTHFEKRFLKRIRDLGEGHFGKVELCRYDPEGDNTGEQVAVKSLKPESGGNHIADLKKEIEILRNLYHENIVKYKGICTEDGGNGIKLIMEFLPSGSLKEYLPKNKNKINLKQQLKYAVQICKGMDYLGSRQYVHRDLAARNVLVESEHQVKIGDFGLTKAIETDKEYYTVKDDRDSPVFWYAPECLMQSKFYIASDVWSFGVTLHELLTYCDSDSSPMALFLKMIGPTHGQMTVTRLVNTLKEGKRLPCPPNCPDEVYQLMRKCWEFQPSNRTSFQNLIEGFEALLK
The target is the same in assay [10]. Description: Inhibition of JAK1 JH1 catalytic domain (unknown origin) at 10 uM by Ambit Kinomescan binding assay relative to control.
Assay [11] concerns the target Mitogen-activated protein kinase kinase kinase 4 (Homo sapiens) (UniProt Q9Y6R4). In words: Inhibition of MAP3K4 K2 labeling site in human Huh-7 cells at 10 uM by KiNativ Profiling analysis relative to control. The format is cell-based.
Assay [12] concerns the target Cyclin-dependent kinase 5 (Homo sapiens) (UniProt Q00535). In words: Inhibition of CDK5 Lys2 labeling site in human A-375 cells at 5 uM by KiNativ Profiling analysis relative to control. It is filed as cell-based.
Assay [13] addresses Microtubule-associated serine/threonine-protein kinase 2 (Homo sapiens) (UniProt Q6P0Q8). Description: Inhibition of MAST2 Lys2 labeling site harbouring DLKPDNLLITSMGHIK in human Huh-7 cell lysate at 1 uM by KiNativ Profiling analysis relative to control. It is filed as subcellular.
The target in assay [14] is T2, Serine/threonine-protein kinase Nek9 (Homo sapiens) (UniProt Q8TD19).
T2 sequence (whole entry): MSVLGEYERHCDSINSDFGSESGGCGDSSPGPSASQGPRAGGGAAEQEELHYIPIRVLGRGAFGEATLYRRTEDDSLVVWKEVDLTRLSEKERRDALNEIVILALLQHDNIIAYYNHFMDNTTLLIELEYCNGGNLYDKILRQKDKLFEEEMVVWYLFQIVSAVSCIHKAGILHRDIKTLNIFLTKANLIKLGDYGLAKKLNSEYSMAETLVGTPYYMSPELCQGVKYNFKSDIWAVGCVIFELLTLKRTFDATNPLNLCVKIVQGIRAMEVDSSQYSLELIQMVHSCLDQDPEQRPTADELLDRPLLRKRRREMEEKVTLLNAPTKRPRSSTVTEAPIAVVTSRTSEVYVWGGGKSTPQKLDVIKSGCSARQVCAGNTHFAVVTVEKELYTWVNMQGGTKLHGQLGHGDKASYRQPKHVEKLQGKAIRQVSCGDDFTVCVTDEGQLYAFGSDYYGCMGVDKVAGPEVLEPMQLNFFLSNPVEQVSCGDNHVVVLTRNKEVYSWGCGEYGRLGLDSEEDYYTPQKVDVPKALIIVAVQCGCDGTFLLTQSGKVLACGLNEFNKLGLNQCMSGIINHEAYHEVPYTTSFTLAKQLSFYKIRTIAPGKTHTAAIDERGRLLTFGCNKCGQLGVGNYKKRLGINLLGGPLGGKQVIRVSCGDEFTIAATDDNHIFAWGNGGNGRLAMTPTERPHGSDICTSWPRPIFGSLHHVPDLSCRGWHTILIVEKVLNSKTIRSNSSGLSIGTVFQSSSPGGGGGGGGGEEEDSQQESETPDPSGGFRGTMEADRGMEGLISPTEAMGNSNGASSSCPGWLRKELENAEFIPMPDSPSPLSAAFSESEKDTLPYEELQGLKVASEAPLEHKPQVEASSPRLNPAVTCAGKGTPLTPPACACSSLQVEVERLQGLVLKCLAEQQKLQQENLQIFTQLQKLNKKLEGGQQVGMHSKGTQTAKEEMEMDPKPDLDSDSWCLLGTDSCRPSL
In words: Inhibition of NEK9 Lys2 labeling site in human Huh-7 cells at 1 uM by KiNativ Profiling analysis relative to control. The format is cell-based.

In assay [15] the target is Protein kinase C beta type (Homo sapiens) (UniProt P05771). Description: Inhibition of PKCb Lys2 labeling site in human Huh-7 cells at 1 uM by KiNativ Profiling analysis relative to control. The format is cell-based.

Chain of Vascular endothelial growth factor receptor 2 (Homo sapiens) (P35968 whole entry, the tested form may be a part): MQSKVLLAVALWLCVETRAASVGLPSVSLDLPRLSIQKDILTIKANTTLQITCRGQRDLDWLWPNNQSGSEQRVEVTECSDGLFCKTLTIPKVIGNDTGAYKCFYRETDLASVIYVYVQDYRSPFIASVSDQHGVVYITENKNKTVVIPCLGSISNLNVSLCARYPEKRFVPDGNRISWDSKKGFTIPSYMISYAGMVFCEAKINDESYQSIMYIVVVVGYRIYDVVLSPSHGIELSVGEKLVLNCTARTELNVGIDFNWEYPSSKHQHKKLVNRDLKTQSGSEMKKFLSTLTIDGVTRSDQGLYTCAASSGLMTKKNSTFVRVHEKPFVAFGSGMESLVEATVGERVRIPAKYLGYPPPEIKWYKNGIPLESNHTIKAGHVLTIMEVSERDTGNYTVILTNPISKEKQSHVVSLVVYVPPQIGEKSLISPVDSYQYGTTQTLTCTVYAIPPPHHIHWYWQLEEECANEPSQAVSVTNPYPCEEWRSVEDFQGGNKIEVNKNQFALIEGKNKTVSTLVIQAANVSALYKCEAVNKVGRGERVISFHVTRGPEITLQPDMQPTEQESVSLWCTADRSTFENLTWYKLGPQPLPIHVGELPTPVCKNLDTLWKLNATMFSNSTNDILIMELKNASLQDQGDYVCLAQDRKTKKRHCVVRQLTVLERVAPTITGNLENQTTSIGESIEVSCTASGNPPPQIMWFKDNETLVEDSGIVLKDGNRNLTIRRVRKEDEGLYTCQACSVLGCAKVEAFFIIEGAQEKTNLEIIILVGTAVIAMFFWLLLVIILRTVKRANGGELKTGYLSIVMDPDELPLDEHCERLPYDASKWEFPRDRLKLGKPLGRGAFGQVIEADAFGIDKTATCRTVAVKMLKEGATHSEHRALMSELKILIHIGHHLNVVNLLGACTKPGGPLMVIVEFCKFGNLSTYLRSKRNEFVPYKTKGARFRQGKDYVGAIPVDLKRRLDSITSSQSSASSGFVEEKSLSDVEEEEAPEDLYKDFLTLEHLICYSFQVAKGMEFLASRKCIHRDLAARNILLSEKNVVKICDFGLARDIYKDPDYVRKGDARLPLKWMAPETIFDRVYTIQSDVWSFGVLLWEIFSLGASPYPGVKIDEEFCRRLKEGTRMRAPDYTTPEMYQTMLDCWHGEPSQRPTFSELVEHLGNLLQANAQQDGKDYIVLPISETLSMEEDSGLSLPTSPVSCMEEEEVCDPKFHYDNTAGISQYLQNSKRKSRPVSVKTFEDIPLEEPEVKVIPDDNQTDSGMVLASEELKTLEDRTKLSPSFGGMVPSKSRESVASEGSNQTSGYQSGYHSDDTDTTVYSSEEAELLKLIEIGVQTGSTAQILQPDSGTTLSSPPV
Chain of Cyclin-dependent kinase 5 (Homo sapiens) (Q00535 whole entry, looked up): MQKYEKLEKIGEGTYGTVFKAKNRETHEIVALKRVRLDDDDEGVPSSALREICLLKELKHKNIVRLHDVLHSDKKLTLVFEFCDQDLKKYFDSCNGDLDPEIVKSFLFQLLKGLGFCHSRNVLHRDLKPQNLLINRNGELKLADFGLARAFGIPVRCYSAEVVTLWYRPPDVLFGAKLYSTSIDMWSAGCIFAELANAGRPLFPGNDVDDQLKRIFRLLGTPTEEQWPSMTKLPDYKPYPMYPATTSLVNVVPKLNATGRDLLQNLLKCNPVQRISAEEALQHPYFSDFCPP

Broadly, the residual activity is the signal under treatment as a percentage of the control signal. Low readings indicate little activity left, high ones much activity left. A word on the inhibition: it is the change of the read-out against control, counted positive when it falls. Consider `CCN1CCN(Cc2ccc(NC(=O)c3ccc(C)c(/C=C/c4cnc5[nH]ccc5c4OC)c3)cc2C(F)(F)F)CC1`, for which the residual activity in assay [1] and in assay [3] was 100% each time. Moreover, the inhibition in assay [2] amounted to 100%.

`CCN1CCN(Cc2ccc(NC(=O)c3ccc(C)c(Oc4ccnc5[nH]ccc45)c3)cc2C(F)(F)F)CC1`: the inhibition was -7.6% in [4]; 2.8% in assay [7]; 11% in assay [10]; 5.2% in [11]; -6.8% in [12]. For the same molecule, the percent of control in assay [5] is 0.1%. For the same molecule, the inhibition entry in [6] and in [9] was “inactive” throughout. The residual activity in assay [8] is 1.5%.

As for `CNc1cc(Oc2cc(C(=O)Nc3cc(N4CCN(C)CC4)cc(C(F)(F)F)c3)ccc2C)ncn1`, the inhibition was 7.2% in assay [13], -4.9% in assay [14] and 64.8% in [15].
